# Laboratory results from US7964751B2, “Enantiomers of amino-phenyl-acetic acid octadec-9-(Z) enyl ester, their salts and their uses” (Yeda Research and Development Co. Ltd., priority 2007, dated 2011).
# Structures can show the parent of a compound that is named as a salt.
# Key:
# [1] = tested on: Delayed type hypersensitivity (DTH) skin inflammation in Balb/c mice; test: Delayed type hypersensitivity (DTH), oxazolone-induced mouse ear swelling test; format: in vivo; details: for % Inflamation (Diff/Base line * 100) / % Inhibition / Difference mm: 24 hours; for inhibition of inflammation: DTH model
# Procedure: Delayed type hypersensitivity (DTH), a localized inflammatory reaction induced by cytokines secreted by certain TH cells when they encounter certain types of antigens, is an established experimental model for skin inflammation.
# DTH reactions were induced in the abdomen skin of 8 week old female Balb/c mice, weighing 20 g each.
# The mice were sensitized first by topical application of 100 μl of a 5% Oxazolone (4-Ethoxymethylene-2-phenyl-2-oxazolin-5-one; Sigma) solution in ethanol/acetone (3:1, vol/vol) to a shaved abdomen. The mice were anesthetized with I.P. injection of 0.2 ml/mouse of a stock solution prepared from Ketamine (1 ml)+Xylazine (1 ml)+Saline (8 ml). The anesthesia was done for the shaving of the abdomen and the first sensitization.
# After 4 days the mice were challenged for the second time using 1% Oxazolone (4-Ethoxymethylene-2-phenyl-2-oxazolin-5-one; Sigma) solution in ethanol/acetone (3:1, vol/vol). The solution was pipetted onto the shaved abdomen of the mice.
# Six days after the first sensitization, the right ear of each mouse was challenged with topical application of 20 μl (10 μl at each surface of the ear) of a 1% Oxazolone solution in olive oil/acetone (3:1, vol/vol).
# Treatment was given 30 min after the elicitation by applying 40 μl (20 μl at each surface of the ear) of treatment compounds, as described before, on the challenged ear of each mouse.
# After 24 hours, the extent of inflammation was measured using the mouse ear swelling test (caliper) and the percent inhibition induced by the treatment was quantified.
# The experiment includes a positive control group which was administered Dexamethasone 2 mg/mouse, one untreated group as a negative control and one naïve group.
# Baseline measurements of the ear were conducted before the first sensitization.
# [2] = pKa of the compound; format: physicochemical
# [3] = Racemization in various solvents, S-isomer measured by chiral HPLC; format: physicochemical
# Procedure: A sample of (R)-Amino-phenyl-acetic acid octadec-9-(Z)-enyl ester HCl (Compound 2) was suspended in various solvents (2 mg/ml). The compound was 99.7% enantiomerically pure as determined by chiral HPLC. The presence of the S-isomer (compound 1) was measured after various time points. The amount of racemization in terms of percent (relative to compound 1+compound 2) is detailed in Table 2 below.
# The presence of the S-isomer (Compound 1) was measured by chiral HPLC after various time points. The amount in terms of percent (relative to compound 1+compound 2) is detailed in the table below.
# [4] = 5 mg/ml, 0.2 mg/mouse topical on challenged ear
# [5] = 8 mg/ml, 0.32 mg/mouse topical on challenged ear
# [6] = 12.5 mg/ml, 0.5 mg/mouse topical on challenged ear
# [7] = 25 mg/ml, 1 mg/mouse topical on challenged ear
# [8] = positive control, 50 mg/ml, 2 mg/mouse
structure (smiles),measurement,setting,value
"CCCCCCCC/C=C\CCCCCCCCOC(=O)[C@@H](N)c1ccccc1 [Compound 1, (S)-Amino-phenyl-acetic acid octadec-9-(Z)-enyl ester HCl]",% Inflamation (Diff/Base line * 100),[1]; [4],87.18%
same,% Inhibition,[1]; [4],20.75%
same,Difference mm,[1]; [4],0.23 mm
same,% Inflamation (Diff/Base line * 100),[1]; [5],34.76%
same,% Inhibition,[1]; [5],68.53%
same,Difference mm,[1]; [5],0.09 mm
same,% Inflamation (Diff/Base line * 100),[1]; [6],25.84%
same,% Inhibition,[1]; [6],77.86%
same,Difference mm,[1]; [6],0.06 mm
same,% Inflamation (Diff/Base line * 100),[1]; [7],17.70%
same,% Inhibition,[1]; [7],83.68%
same,Difference mm,[1]; [7],0.05 mm
same,inhibition of inflammation,[1],provide inhibition of inflammation
"CCCCCCCC/C=C\CCCCCCCCOC(=O)[C@H](N)c1ccccc1 [Compound 2, (R)-Amino-phenyl-acetic acid octadec-9-(Z)-enyl ester HCl]",pKa,[2],4.2
same,% Inflamation (Diff/Base line * 100),[1]; [4],71.13%
same,% Inhibition,[1]; [4],39.39%
same,Difference mm,[1]; [4],0.17 mm
same,% Inflamation (Diff/Base line * 100),[1]; [5],41.68%
same,% Inhibition,[1]; [5],62.12%
same,Difference mm,[1]; [5],0.11 mm
same,% Inflamation (Diff/Base line * 100),[1]; [6],50.31%
same,% Inhibition,[1]; [6],55.71%
same,Difference mm,[1]; [6],0.13 mm
same,% Inflamation (Diff/Base line * 100),[1]; [7],35.01%
same,% Inhibition,[1]; [7],68.53%
same,Difference mm,[1]; [7],0.09 mm
same,inhibition of inflammation,[1],provide inhibition of inflammation
same,Percent racemization (relative to compound 1 + compound 2),"[3]; 0.1 N HCl, 2 mg/ml, 0 hours",0.4%
same,Percent racemization (relative to compound 1 + compound 2),"[3]; 0.1 N HCl, 2 mg/ml, 1 hour",0.4%
same,Percent racemization (relative to compound 1 + compound 2),"[3]; 0.1 N HCl, 2 mg/ml, 2 hours",0.4%
same,Percent racemization (relative to compound 1 + compound 2),"[3]; 0.1 N HCl, 2 mg/ml, 3 hours",0.3%
same,Percent racemization (relative to compound 1 + compound 2),"[3]; 0.1 N HCl, 2 mg/ml, 4 hours",0.3%
same,Percent racemization (relative to compound 1 + compound 2),"[3]; 0.1 N HCl, 2 mg/ml, 21 hours",0.3%
same,Percent racemization (relative to compound 1 + compound 2),"[3]; 0.9% NaCl solution, 2 mg/ml, 0 hours",0.9%
same,Percent racemization (relative to compound 1 + compound 2),"[3]; 0.9% NaCl solution, 2 mg/ml, 1 hour",1.2%
same,Percent racemization (relative to compound 1 + compound 2),"[3]; 0.9% NaCl solution, 2 mg/ml, 2 hours",2.3%
same,Percent racemization (relative to compound 1 + compound 2),"[3]; 0.9% NaCl solution, 2 mg/ml, 3 hours",3.3%
same,Percent racemization (relative to compound 1 + compound 2),"[3]; 0.9% NaCl solution, 2 mg/ml, 4 hours",3.0%
same,Percent racemization (relative to compound 1 + compound 2),"[3]; 0.9% NaCl solution, 2 mg/ml, 21 hours",6.0%
same,S-isomer (Compound 1) amount in percent (relative to compound 1+compound 2),"[3]; 1% Acetic acid, pH 2.8, 2 mg/ml, 0 hr",0.7%
same,S-isomer (Compound 1) amount in percent (relative to compound 1+compound 2),"[3]; 1% Acetic acid, pH 2.8, 2 mg/ml, 1 hr",2.0%
same,S-isomer (Compound 1) amount in percent (relative to compound 1+compound 2),"[3]; 1% Acetic acid, pH 2.8, 2 mg/ml, 2 hr",3.6%
same,S-isomer (Compound 1) amount in percent (relative to compound 1+compound 2),"[3]; 1% Acetic acid, pH 2.8, 2 mg/ml, 3 hr",5.2%
same,S-isomer (Compound 1) amount in percent (relative to compound 1+compound 2),"[3]; 1% Acetic acid, pH 2.8, 2 mg/ml, 4 hr",6.6%
same,S-isomer (Compound 1) amount in percent (relative to compound 1+compound 2),"[3]; Acetate Buffer, pH 3.5, 2 mg/ml, 0 hr",0.3%
same,S-isomer (Compound 1) amount in percent (relative to compound 1+compound 2),"[3]; Acetate Buffer, pH 3.5, 2 mg/ml, 1 hr",3.3%
same,S-isomer (Compound 1) amount in percent (relative to compound 1+compound 2),"[3]; Acetate Buffer, pH 3.5, 2 mg/ml, 2 hr",6.2%
same,S-isomer (Compound 1) amount in percent (relative to compound 1+compound 2),"[3]; Acetate Buffer, pH 3.5, 2 mg/ml, 3 hr",9.3%
same,S-isomer (Compound 1) amount in percent (relative to compound 1+compound 2),"[3]; Acetate Buffer, pH 3.5, 2 mg/ml, 4 hr",12.1%
same,S-isomer (Compound 1) amount in percent (relative to compound 1+compound 2),"[3]; Acetate Buffer, pH 4.0, 2 mg/ml, 0 hr",0.2%
same,S-isomer (Compound 1) amount in percent (relative to compound 1+compound 2),"[3]; Acetate Buffer, pH 4.0, 2 mg/ml, 1 hr",7.7%
same,S-isomer (Compound 1) amount in percent (relative to compound 1+compound 2),"[3]; Acetate Buffer, pH 4.0, 2 mg/ml, 2 hr",15.2%
same,S-isomer (Compound 1) amount in percent (relative to compound 1+compound 2),"[3]; Acetate Buffer, pH 4.0, 2 mg/ml, 3 hr",22.1%
same,S-isomer (Compound 1) amount in percent (relative to compound 1+compound 2),"[3]; Acetate Buffer, pH 4.0, 2 mg/ml, 4 hr",27.2%
same,S-isomer (Compound 1) amount in percent (relative to compound 1+compound 2),"[3]; Acetate Buffer, pH 5.0, 2 mg/ml, 0 hr",0.2%
same,S-isomer (Compound 1) amount in percent (relative to compound 1+compound 2),"[3]; Acetate Buffer, pH 5.0, 2 mg/ml, 1 hr",6.3%
same,S-isomer (Compound 1) amount in percent (relative to compound 1+compound 2),"[3]; Acetate Buffer, pH 5.0, 2 mg/ml, 2 hr",14.6%
same,S-isomer (Compound 1) amount in percent (relative to compound 1+compound 2),"[3]; Acetate Buffer, pH 5.0, 2 mg/ml, 3 hr",19.0%
same,S-isomer (Compound 1) amount in percent (relative to compound 1+compound 2),"[3]; Acetate Buffer, pH 5.0, 2 mg/ml, 4 hr",25.3%
same,S-isomer (Compound 1) amount in percent (relative to compound 1+compound 2),"[3]; Acetate Buffer, pH 5.5, 2 mg/ml, 0 hr",0.2%
same,S-isomer (Compound 1) amount in percent (relative to compound 1+compound 2),"[3]; Acetate Buffer, pH 5.5, 2 mg/ml, 1 hr",4.7%
same,S-isomer (Compound 1) amount in percent (relative to compound 1+compound 2),"[3]; Acetate Buffer, pH 5.5, 2 mg/ml, 2 hr",8.2%
same,S-isomer (Compound 1) amount in percent (relative to compound 1+compound 2),"[3]; Acetate Buffer, pH 5.5, 2 mg/ml, 3 hr",12.4%
same,S-isomer (Compound 1) amount in percent (relative to compound 1+compound 2),"[3]; Acetate Buffer, pH 5.5, 2 mg/ml, 4 hr",16.4%
same,Percent racemization (relative to compound 1 + compound 2),"[3]; PBS, pH 7.4, 2 mg/ml, 0 hours",0.4%
same,Percent racemization (relative to compound 1 + compound 2),"[3]; PBS, pH 7.4, 2 mg/ml, 1 hour",7.2%
same,Percent racemization (relative to compound 1 + compound 2),"[3]; PBS, pH 7.4, 2 mg/ml, 2 hours",12.3%
same,Percent racemization (relative to compound 1 + compound 2),"[3]; PBS, pH 7.4, 2 mg/ml, 3 hours",15.0%
same,Percent racemization (relative to compound 1 + compound 2),"[3]; PBS, pH 7.4, 2 mg/ml, 4 hours",17.9%
same,Percent racemization (relative to compound 1 + compound 2),"[3]; PBS, pH 7.4, 2 mg/ml, 21 hours",47.0%
same,Percent racemization (relative to compound 1 + compound 2),"[3]; Purified water, 2 mg/ml, 0 hours",0.4%
same,Percent racemization (relative to compound 1 + compound 2),"[3]; Purified water, 2 mg/ml, 1 hour",3.8%
same,Percent racemization (relative to compound 1 + compound 2),"[3]; Purified water, 2 mg/ml, 2 hours",7.2%
same,Percent racemization (relative to compound 1 + compound 2),"[3]; Purified water, 2 mg/ml, 3 hours",10.3%
same,Percent racemization (relative to compound 1 + compound 2),"[3]; Purified water, 2 mg/ml, 4 hours",13.9%
same,Percent racemization (relative to compound 1 + compound 2),"[3]; Purified water, 2 mg/ml, 21 hours",38.2%
same,racemization in various aqueous solvents,[3]; various aqueous solvents,undergoes racemization
"C[C@@H]1C[C@H]2[C@@H]3CCC4=CC(=O)C=C[C@]4(C)[C@@]3(F)[C@@H](O)C[C@]2(C)[C@@]1(O)C(=O)CO [dexamethasone, Dexamethasone, reference compound]",% Inflamation (Diff/Base line * 100),[1]; [8],22.62%
same,% Inhibition,[1]; [8],80.42%
same,Difference mm,[1]; [8],0.06 mm
"CCCCCCCC/C=C\CCCCCCCCOC(=O)C(N)c1ccccc1.Cl (racemic) [Racemic, aminophenylacetic acid octadec-(Z)-9-enyl ester HCl, reference compound]",% Inflamation (Diff/Base line * 100),[1]; [4],69.43%
same,% Inhibition,[1]; [4],38.46%
same,Difference mm,[1]; [4],0.18 mm
same,% Inflamation (Diff/Base line * 100),[1]; [5],73.53%
same,% Inhibition,[1]; [5],39.98%
same,Difference mm,[1]; [5],0.17 mm
same,% Inflamation (Diff/Base line * 100),[1]; [6],43.08%
same,% Inhibition,[1]; [6],60.14%
same,Difference mm,[1]; [6],0.11 mm
same,% Inflamation (Diff/Base line * 100),[1]; [7],13.68%
same,% Inhibition,[1]; [7],87.76%
same,Difference mm,[1]; [7],0.04 mm
same,inhibition of inflammation,[1],provide inhibition of inflammation
